Like-named read-outs stand apart in the source and are kept apart here.
Assays:
[1] = for Sulfate Concentration / Sulfide Concentration / Sulfite Concentration: degradation product, dialysate bicarbonate concentrate + sodium thiosulfate; for Measured Sodium Thiosulfate Concentration: dialysate bicarbonate concentrate, room temperature, expected 1.61 mg/mL
Experimental: (§1) Concentration of thiosulfate in samples was assayed by ion chromatography. The ion chromatograph was equipped with an electrochemical conductivity detector and a Dionex IonPacAS12A analytical column. The sodium thiosulfate content in the samples tested was calculated against an external sodium thiosulfate standard. USP Sodium Thiosulfate Reference Standard (Item Number 1615107) was the testing standard (United States Pharmacopeia. Rockville, Maryland).
Example 2 was performed to determine the stability of sodium thiosulfate in dialysate bicarbonate concentrate solution. At room temperature, 12500 mg sodium thiosulfate (50 mL of 250 mg/mL solution) was added to 7,700 mL of dialysate bicarbonate concentrate solution. The thiosulfate concentration of the dialysate bicarbonate concentrate solution was analyzed by ion chromatography 1) before addition of sodium thiosulfate; 2) 5 minutes after the addition of sodium thiosulfate; and 3) 2 hours after the addition of sodium thiosulfate.

[2] = mixed dialysate exiting hemodialysis machine; expected 0.0608 mg/L
Experimental: as §1
The machine was primed in bypass mode (dialysate and ultrafiltration rates set at zero) using normal saline.

[3] = during the first hour of hemodialysis; cited from earlier work
[4] = for Thiosulfate Concentration After the Addition of Sodium Thiosulfate (Time = 60 Min): average of two samples
Experimental: as §1
Dialysate bicarbonate concentrate solution was prepared by adding 1 package of Centrisol© MB-330 Series Sodium Bicarbonate Concentrate powder (650 g) to 7.7 liters of purified water.
The hemodialysis machine mixed the bicarbonate concentrate solution and acid concentrate solution with the dilution ratio of 1 part of an acid concentrate solution, 1.72 parts of a bicarbonate concentrate solution, and 42.38 parts of purified water. The machine was primed in bypass mode (dialysate and ultrafiltration rates set at zero) using normal saline. After priming, the hemodialysis machine was run in “Therapy Mode” with the following settings: blood flow rate 300 mL/minute, dialysate flow rate 600 mL/minute, ultrafiltration rate 0 mL/minute.
An aqueous solution of sodium thiosulfate was prepared by dissolving 25 mg of sodium thiosulfate in 1 liter of purified water. […] This valve was placed in the dialysate tubing approximately eight inches upstream of the dialyzer (pre-filter). Two sampling ports were placed four inches upstream (pre-dialyzer sampling port) and ten inches downstream (post-dialyzer sampling port) from the dialyzer to collect samples of dialysate for […] assay by ion chromatography.
The infusion pump infused the sodium thiosulfate solution into the tubing through the valve at a rate of 250 mL/hour (4.16 mL/minute).
Normal saline flowed into the dialyzer at a rate of 300 mL/minute from the Arterial line and exited the dialyzer through the Venous line. Samples of saline were collected from the venous side of the dialyzer.

[5] = 60 mg sample, 2 mL of 0.1 N hydrochloric acid, 80° C., approximately 24 hours
Experimental: as §1

[6] = material safety data sheet; cited from earlier work

O=S(O)(O)=S [Sodium Thiosulfate, sodium thiosulfate]
Sulfate Concentration ([1]; after 5 minutes): 4.4 µg/mL | Sulfide Concentration ([1]; after 5 minutes): <2.5 µg/mL | Sulfite Concentration ([1]; after 5 minutes): 5.9 µg/mL | Sulfate Concentration ([1]; after 2 hours): 4.3 µg/mL | Sulfide Concentration ([1]; after 2 hours): <2.5 µg/mL | Sulfite Concentration ([1]; after 2 hours): 5.4 µg/mL | Measured Sodium Thiosulfate Concentration ([1]; after 5 minutes): 1.65 mg/mL | Measured Sodium Thiosulfate Concentration ([1]; after 2 hours): 1.65 mg/mL | stability in dialysate bicarbonate concentrate solution (in words) ([1]; over 2 hours): stable | Thiosulfate Concentration by Assay [2]: 0.001824 | decline of concentration of thiosulfate in the plasma [3]: over 60% | passage along or through dialyzer (in words) ([4]; added to unspiked dialysate between hemodialysis machine and dialyzer membrane): can either pass along or pass through a dialyzer | Thiosulfate Concentration After the Addition of Sodium Thiosulfate (Time = 60 Min) ([4]; dialysate after dialyzer): 2.20 µM | Thiosulfate Concentration After the Addition of Sodium Thiosulfate (Time = 60 Min) ([4]; dialysate before dialyzer): 4.04 µM | Thiosulfate Concentration After the Addition of Sodium Thiosulfate (Time = 60 Min) ([4]; saline solution after dialyzer (venous side)): 1.62 µM | percentage of thiosulfate degradation [5]: 28.6% | behaviour on contact with acid (in words) [6]: decomposes on contact with acid

— patent US12370212B2, “Intradialytic use of sodium thiosulfate” (Hope Medical Enterprises, Inc., priority 2017, dated 2025)
